Measured values reported in patent US20100022402A1, “Methods and Compositions for the In Vitro High-Throughput Detection of Protein/Protein Interactions” (priority 2004, published 2010).
Read-outs that look alike come from different tables or passages of the source.

What was measured:
[1] = test system: λD-Acid:λD-Base association; test: Titration of λD-Acid:λD-Base phage association by free competitors (loss of double resistant multilysogen formation); assay type: binding; settings: for concentration found to inhibit the λD-Acid:λD-Base interaction: free amino acid; for cross-inhibition of λD-Acid:λD-Base: non-partner free proteins; for IC50, inhibition of Acid/Base association: MOI of 0.0025, aptamer 0.001 μM to 5 μM, FIG. 6; for Kd: free synthetic peptide competing with aptamer interaction, read-out: apparent KD (concentration of free peptide that results in an IC50)
Method: Lambda display phages are used to co-infect cells at an MOI of 0.0025. In the presence of increasing concentrations of the Acidic (triangles) or Basic (square) Aptamer (0.001 μM to 5 μM), titration of Acid/Base association is scored by the loss of double resistant multilysogen formation. The point representing the maximum number of lysogens for this given MOI.
(§1) Display phages are assayed for their ability to associate with other phages bearing a potential binding partner, with a non-binding partner and with a non-display D vector phage (i.e. λA2 and λA3). The production of double antibiotic resistant (Cml^r/Kan^r) multilysogen E. coli LE392 is used to mark positive fusion D display protein-protein interaction. First, the phages are combined to yield a chosen MOI (a typical initial range is 0.002-0.04), and allowed to associate for 5 minutes at room temperature (RT) prior to dilution with 220 uL of Salted Association Buffer (SAB; 20 mM Tris.HCLpH7.4, 10 mM CaCl2, 10 mM MgCl2 and 100 mM NaCl). After 10 minutes at room temperature, 1×10^8 of fresh log-phase E. coli LE392 recovered in [LB+0.4% maltose+10 mM CaCl2] is added. Phage-phage association, co-infection and antibiotic gene expression are allowed to proceed for 45 min-1 h at RT, followed by plating on agar supplemented with 10^ug/mL Cml+30^ug/mL Kan. Plates are incubated overnight at 32° C. for lysogen formation.

[2] = test system: λD-CUE:λD-Ubiquitin association; test: Titration of λD-CUE:λD-Ubiquitin phage association by free proteins (loss of double resistant multilysogen formation); assay type: binding; settings: for titration of λD-CUE:λD-Ubiquitin by non-partner peptides: acidic or basic aptamers
Method: Lambda display phages are used to co-infect cells at an MOI of 0.04. In the presence of increasing concentrations of the wtUbiquitin (diamonds), wt CUE (squares) or mutant CUEM419D (triangles) protein is added to the phage pair, and positive λD-CUE:λD-Ubiquitin association is scored by the loss of double resistant multilysogen formation. The results are tabulated as the number of colonies counted, with the point representing the maximum number of lysogens for this given MOI.
as §1

E. coli LE392 cells = test: Protein association assay: lysogen formation after infection with vector or display phages; assay type: cell-based; settings: single input phage, MOI 0.1
Method: as §1

monoubiquitin = monoubiquitin (Homo sapiens, UniProt P0CG47); settings: cited from earlier work
CUE = target: T1, CUE (Saccharomyces cerevisiae, UniProt P54787); settings: CUE binds itself via an alpha helix interface; read-out: Kd (dimerization); cited from earlier work
T1 construct: The CUE domain (50 amino acid residues), as characterized by the conserved MFP and LL motifs
T1 sequence (P54787 408-451 limits assumed): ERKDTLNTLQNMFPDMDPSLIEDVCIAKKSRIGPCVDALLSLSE

For N=C(N)NCCC[C@H](N)C(=O)O [Arginine], the “concentration found to inhibit the λD-Acid:λD-Base interaction” value [1] was 4.6 mM.

For N[C@@H](CCC(=O)O)C(=O)O [Glutamic acid], the “concentration found to inhibit the λD-Acid:λD-Base interaction” value [1] was 0.679 mM.

For “CUEM419D: non-binding mutant CUE protein (KKIEENERKDTLNTLQNDFPDMDPSLIEDVCIAKKSRIGPCVDALLSLSE)”, the “cross-inhibition of λD-Acid:λD-Base” value [1] was “no cross-inhibition”, the “titration point of λD-CUE:λD-Ubiquitin association” value ([2]; MOI of 0.04, FIG. 7) was “no titration point” and the “ability to challenge the λD-CUE:λD-Ubiquitin interaction” value ([2]; even at a concentration of 1 mM) was “unable to challenge”.

For GEGEGEGE [Acidic Aptamer, [Gly-Glu]4], the “IC50, inhibition of Acid/Base association” value [1] was roughly 0.01 µM, the Kd [1] was 0.01 µM and the “titration of λD-CUE:λD-Ubiquitin by non-partner peptides” value [2] was “nor is λD-CUE:λD-Ubiquitin titrated”.

With GRGRGRGR [Basic Aptamer, [Gly-Arg]4] the “IC50, inhibition of Acid/Base association” value [1] was roughly 0.01 µM, the Kd [1] was 0.01 µM and the “titration of λD-CUE:λD-Ubiquitin by non-partner peptides” value [2] was “nor is λD-CUE:λD-Ubiquitin titrated”.

For Ubiquitin, the “Number of Cml^r/Kan^r Cells” value (E. coli LE392 cells) was 0 and the “Number of Kan^r Cells” value (E. coli LE392 cells) was 3 × 10^6.

For “wt CUE: free wild type CUE domain (50 amino acids) of Vsp9p (KKIEENERKDTLNTLQNMFPDMDPSLIEDVCIAKKSRIGPCVDALLSLSE)”, the “cross-inhibition of λD-Acid:λD-Base” value [1] is listed as “no cross-inhibition”, the Kd ([2]; free protein, read-out: apparent KD, competition of λD-Cue:λD-Ubiquitin pair) is listed as 0.002 µM and the Kd (monoubiquitin; CUE as a dimer (dimericCue:Ubiquitin), read-out: apparent KD, CUE binding Ubiquitin) is listed as 1.2 µM. For the same compound, the Kd (monoubiquitin; CUE as a monomer, read-out: KD, CUE binding monoubiquitin) was 20 µM and the Kd (CUE) was 1000 µM.
